Values of other authors, collected in US20060099667A1, “Method for performing restrained dynamics docking of one or multiple substrates on multi-specific enzymes” (priority 2002, published 2006).
Entries after “also recorded” stand apart in the source; their conditions may differ. Structures can show the parent of a compound that is named as a salt.

Experiments:
[1] = molecular target: CYP3A7 (Homo sapiens, UniProt P24462)
[2] = molecular target: CYP3A5 (Homo sapiens, UniProt P20815)
[3] = molecular target: CYP3A4 (Homo sapiens, UniProt P08684)
CYP3A4, sequence (P08684 whole entry): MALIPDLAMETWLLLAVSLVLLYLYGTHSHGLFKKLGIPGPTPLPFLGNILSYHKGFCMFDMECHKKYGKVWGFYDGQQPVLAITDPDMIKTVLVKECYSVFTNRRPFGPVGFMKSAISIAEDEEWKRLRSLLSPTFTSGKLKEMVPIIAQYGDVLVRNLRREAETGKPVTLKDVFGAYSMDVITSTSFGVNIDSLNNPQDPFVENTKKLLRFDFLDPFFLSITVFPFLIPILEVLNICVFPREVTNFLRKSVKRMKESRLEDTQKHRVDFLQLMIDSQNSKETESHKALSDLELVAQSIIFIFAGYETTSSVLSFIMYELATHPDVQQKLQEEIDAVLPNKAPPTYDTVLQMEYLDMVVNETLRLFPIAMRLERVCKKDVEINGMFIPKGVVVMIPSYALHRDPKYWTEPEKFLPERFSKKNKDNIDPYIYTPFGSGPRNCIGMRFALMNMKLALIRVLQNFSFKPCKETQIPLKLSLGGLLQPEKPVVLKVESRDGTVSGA

CYP3A7, sequence (P24462 whole entry): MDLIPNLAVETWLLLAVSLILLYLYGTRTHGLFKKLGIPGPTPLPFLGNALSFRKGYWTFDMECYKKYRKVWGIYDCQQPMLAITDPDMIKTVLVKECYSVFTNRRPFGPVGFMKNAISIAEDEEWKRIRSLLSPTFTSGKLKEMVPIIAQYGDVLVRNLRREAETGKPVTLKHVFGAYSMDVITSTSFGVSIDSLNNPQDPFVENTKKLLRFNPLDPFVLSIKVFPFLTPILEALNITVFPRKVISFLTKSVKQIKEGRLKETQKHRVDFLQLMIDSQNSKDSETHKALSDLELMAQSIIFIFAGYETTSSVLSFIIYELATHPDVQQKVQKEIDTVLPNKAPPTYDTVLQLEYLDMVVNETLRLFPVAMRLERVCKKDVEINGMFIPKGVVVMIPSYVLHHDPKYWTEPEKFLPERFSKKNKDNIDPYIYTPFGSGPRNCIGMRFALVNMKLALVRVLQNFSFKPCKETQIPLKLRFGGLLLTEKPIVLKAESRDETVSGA
CYP3A5, sequence (P20815 whole entry): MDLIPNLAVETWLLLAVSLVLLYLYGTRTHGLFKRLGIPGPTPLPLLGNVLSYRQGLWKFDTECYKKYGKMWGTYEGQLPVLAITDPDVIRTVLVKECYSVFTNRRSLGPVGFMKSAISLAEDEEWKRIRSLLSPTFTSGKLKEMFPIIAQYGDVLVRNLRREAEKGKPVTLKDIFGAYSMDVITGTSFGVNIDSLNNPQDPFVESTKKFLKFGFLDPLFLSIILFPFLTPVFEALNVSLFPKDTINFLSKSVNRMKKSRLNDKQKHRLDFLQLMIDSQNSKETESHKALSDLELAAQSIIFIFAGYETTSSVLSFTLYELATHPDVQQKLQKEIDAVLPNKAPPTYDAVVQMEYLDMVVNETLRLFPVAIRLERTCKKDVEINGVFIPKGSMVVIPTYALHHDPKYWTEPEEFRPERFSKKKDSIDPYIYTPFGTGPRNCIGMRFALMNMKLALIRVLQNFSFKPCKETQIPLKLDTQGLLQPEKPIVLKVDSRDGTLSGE

SMILES | position of oxidation [1] | position of oxidation [2] | position of oxidation [3]
C[C@]12CC[C@H](OS(=O)(=O)O)CC1=CC[C@@H]1[C@@H]2CC[C@]2(C)C(=O)CC[C@@H]12 [DHEA 3 sulfate conjugate] | exclusively on the 16α position | – | –
C[C@]12CC[C@H]3[C@@H](CCC4=CC(=O)CC[C@@]43C)[C@@H]1CC[C@@H]2O [testosterone] | both 6β and 16α position | almost exclusively in the 6β position | exclusively at the 6β position; also recorded: almost exclusively in the 6β position
